Data: patent publication US20250263439A1, “HETERODIMERIC PEPTIDE REAGENTS AND METHODS” (REGENTS OF THE UNIVERSITY OF MICHIGAN, priority 2018, published 2025)
pKd: −log10 of the molar value. Several values for one entry are separate records, joined by “and”; a condition that tells them apart may be missing. Identical values can stand only once. Entries after “also recorded” stand apart in the source; their conditions may differ. Each block holds one molecule with its values, some of them ahead of it. Bridge positions count the residues as written; N and C are the ends. Square brackets hold non-standard residues; d marks the D form. Ends that are not written are not given here. Peptide text beside a SMILES is read from it. I, II: the chains in the order shown. * marks the point of attachment. X1 = CC1(C)C(=CC=C2CCCC(C=CC3=[N+](CCCCCC(=O)NCCN4C(=O)CC(*)C4=O)c4ccc(S(=O)(=O)O)cc4C3(C)C)=C2Oc2ccc(S(=O)(=O)O)cc2)N(CCCCS(=O)(=O)[O-])c2ccc(S(=O)(=O)O)cc21; AEEEA = NCCOCCOCCOCC(=O)O

How the values were obtained:
[1] = test system: human OE33 xenograft tumors; assay: Biodistribution of IRDye800 heterodimer in major organs; design: species or system mice; conditions: mouse, in vivo
Method: (§1) Tumor-bearing mice were sacrificed at 2 hours post-injection of heterodimer or control peptide.

[2] = FL intensity in serum of tumor bearing mice over 48 hours; format: in vivo; conditions: mouse, 45 nmol
Method: FIG. 19A) White light and FIG. 19B) FL images (λex=800 nm) are shown of heterodimer distribution in major organs at 2 hours post-injection. FIG. 19C) Mean (±SD) fluorescence intensity for heterodimer and control peptide was shown from n=6 mice each. […] FIG. 19D) FL intensity from serum of tumor bearing mice injected with heterodimer (300 μM, 150 μL PBS, n=6) is shown over 48 hours. Blood prior to heterodimer injection is shown as control.
as §1

[3] = test system: OE33 human xenograft tumor; assay: Immunofluorescence of OE33 xenograft tumor sections ex vivo
Method: Immunofluorescence was performed to validate target expression in sections of OE33 human xenograft tumor ex vivo.

[4] = test system: human OE33 xenograft tumors; assay: In vivo photoacoustic (PA) imaging of OE33 xenograft tumors (IRDye800); design: species or system mice; conditions: for Photoacoustic T/B ratio, mean: 2 hours post-injection
Method: (§2) FL and PA images were collected following systemic administration of QRH*-KSP*-E3-IRDye800 and (GGGAGGG (SEQ ID NO: 28))2-E3-IRDye800 (control) in human OE33 xenograft tumors to characterize pharmacokinetics. […] The mean intensity for either modality regressed to baseline at ˜24 hours post-injection.
Dual-modal images were collected at 2 hours following heterodimer injection to assess imaging depth. […] An ultrasound image confirmed tumor structure, FIG. 20D.

[5] = test system: OE19, OE21, OE33 and SKBr3 cancer cells; assay: Cytotoxicity of IRDye800 heterodimer in panel of human cancer cells; format: cell-based; conditions: 48 hours, concentrations up to 500 μg/mL
[6] = test system: human OE33 xenograft tumors; assay: In vivo fluorescence (FL) imaging of OE33 xenograft tumors (IRDye800); design: species or system mice; conditions: for Fluorescence T/B ratio, mean (±SD): 2 hours post-injection, n=6 mice
Method: as §2

SKBr3 cells = assay: Confocal cell surface binding of IRDye800 heterodimer to cell panel; format: cell-based, human
Method: Confocal microscopy was performed to validate specific heterodimer binding. […] AF568-labeled anti-EGFR and AF488-labeled anti-HER2 antibodies were used as positive controls to confirm EGFR and HER2 expression by the cell panel. Heterodimer and antibody binding to the surface (arrows) of SKBr3 cells co-localize, and a Pearson's coefficient of ρ=0.58 and 0.65 was measured for EGFR and HER2, respectively, on merged images, FIG. 23A-F.

[7] = test system: EGFR and ErbB2 mediated signaling; assay: Effect on downstream cell signaling in SKBr3 cells (Western blot); format: cell-based, human
Method: The effect of heterodimer binding on downstream signaling was evaluated in SKBr3 cells. SKBr3 cells were seeded in 6-well flat-bottom plates. […] EGF (#E9644, Sigma) was reconstituted to 1 mg/mL using 10 mM acetic acid, diluted with 0.1% BSA, and added to SKBr3 cells at a concentration of 100 ng/mL. Lapatinib (CDS022971, Sigma) was diluted to 100 nM in DMSO and PBS from 1 mg/mL stock solution, and was added to the cells incubated with heterodimer at concentrations of 1, 5, and 20 μM in separate wells.

[8] = Marshall et al.; cited from earlier work
OE33 cells [9] = assay: Apparent association time constant by flow cytometry with OE33 cells; format: binding, human; conditions: for apparent association time constant Ka: flow cytometry, 1 μM, 4° C.; for apparent association time constant (time): value in brackets after Ka
Method: The apparent association time constant (Ka) was measured to assess binding kinetics to OE33 cells. OE33 cells were grown to about 80% confluence in 10 cm dishes, and cells were then detached with PBS-based cell dissociation buffer (Invitrogen). About 10^5 cells were incubated with 1 μM of the heterodimer at 4° C. for different time periods ranging from […]. The cells were centrifuged, washed with cold PBS, and fixed with 4% PFA. Flow cytometry was performed, and the median fluorescence intensity (y) was ratioed with that of OE33 cells without addition of peptide at time points (t) using Flowjo software. The rate constant K was calculated by fitting the data to the first-order kinetics model, y(t)=Imax[1−exp^(−kt)], where Imax=maximum value, using Prism 5.0 software.

OE33 cells [10] = assay: Apparent dissociation constant by flow cytometry with OE33 cells; format: binding, human; conditions: flow cytometry, 4° C.
Method: The apparent dissociation constant (Kd) was measured to assess binding affinity of the heterodimer to OE33 cells. The heterodimer was serially diluted in PBS at concentrations of about 0, 10, 25, 50, 100, and 200 nM with about […] at 4° C. for one hour and washed with cold PBS. The mean fluorescence intensities were measured with flow cytometry (BD LSRII, BD Biosciences). The equilibrium dissociation constant Kd 1/Ka was calculated with a least-squares fit of the data to the nonlinear equation I=(I0+ImaxKa[X])/(I0+Ka[X]). I0 and Imax are the initial and maximum fluorescence intensities, corresponding to no peptide and at saturation, respectively, and [X] represents the concentration of bound peptide. Prism 5.0 software (Graphpad Inc.) was used to calculate Kd and Ka.

Flo1-HER2 cells = assay: Confocal binding of FITC-labeled candidate peptides to Flo1-HER2 cells; format: cell-based; conditions: FITC label, among five leading candidates
Method: A FITC label was attached to each peptide, and binding to Flo1-HER2 and QhTERT cells (control) was imaged using confocal microscopy. […] From the model, this peptide was determined to bind to HER2 domain 3. The peptide was then labeled for deep tissue imaging with a Cy5.5 fluorophore via a GGGSK (SEQ ID NO: 3) linker on the C-terminus, hereafter KSP*-Cy5.5. Cy5.5 was chosen for high quantum yield and photostability. The linker prevents steric hindrance by spatially separating the fluorophore from the peptide. A scrambled sequence PPSNFKR (SEQ ID NO: 4) was developed for use as control by altering the conformationally rigid spacer PNP and moving both hydrophobic and hydrophilic amino acids at the C-terminus. This control peptide also was linked to Cy5.5 via GGGSK (SEQ ID NO: 3), hereafter PPS*-Cy5.5. […] The fluorescence emission peak occurs at 708 nm in the NIR spectrum.

tumor uptake (biodistribution) [1]: high tumor uptake | half-life [2]: ~3 h | time of peak PA T/B ratio / intensity post-injection ([4]; intravenous): 2 h | time of regression of PA intensity to baseline / clearance ([4]; post-injection): ~24 h | time of peak FL T/B ratio / intensity post-injection ([6]; intravenous): 2 h | time of regression of FL intensity to baseline / clearance ([6]; post-injection): ~24 h
Molecule: CC1(C)C(=CC=C2CCCC(C=CC3=[N+](CCCCCC(=O)NCCN4C(=O)CC(SC[C@H](NC(=O)[C@H](CCCCNC(=O)COCCOCCOCCNC(=O)[C@H](CCC(=O)O)NC(=O)[C@H](CCCNC(=N)N)NC(=O)[C@@H]5CCCN5C(=O)[C@H](CCCCN)NC(=O)[C@H](Cc5c[nH]cn5)NC(=O)[C@H](CCCNC(=N)N)NC(=O)[C@@H](N)CCC(N)=O)NC(=O)COCCOCCOCCNC(=O)[C@H](Cc5ccccc5)NC(=O)[C@H](CCCNC(=N)N)NC(=O)[C@@H]5CCCN5C(=O)[C@H](CC(N)=O)NC(=O)[C@@H]5CCCN5C(=O)[C@H](CO)NC(=O)[C@@H](N)CCCCN)C(N)=O)C4=O)c4ccc(S(=O)(=O)O)cc4C3(C)C)=C2Oc2ccc(S(=O)(=O)O)cc2)N(CCCCS(=O)(=O)[O-])c2ccc(S(=O)(=O)O)cc21 (stereo partly drawn) [QRH*-KSP*-E3-IRDye800] (I: H-KSPNPRF[AEEEA]KC(X1)-NH2 / II: H-QRHKPRE[AEEEA]; amide I:9-II:C)
T/B ratio ([3]; OE33 xenograft tumor sections, 3 boxes of 20×20 μm2): 5.0±0.8 | binding to surface of OE33 xenograft tumor cells ([3]; immunofluorescence of sections): strong binding | Photoacoustic T/B ratio, mean [4]: 2.44±0.36 | mean PA T/B ratio versus control peptide or PBS ([4]; mouse, in vivo): significantly greater | cytotoxicity [5]: Negligible cytotoxicity; also recorded: No cytotoxicity | Fluorescence T/B ratio, mean (±SD) [6]: 3.89±0.94 | mean FL T/B ratio versus control peptide or PBS ([6]; mouse, in vivo): significantly greater | binding to surface of SKBr3 cells (SKBr3 cells; confocal microscopy): Strong fluorescence intensity; also recorded: Strong binding | mean fluorescence intensity SKBr3 versus OE21, OE19, and QhTERT cells (SKBr3 cells; paired t-test): significantly greater

Molecule: CS(=O)(=O)CCNCc1ccc(-c2ccc3ncnc(Nc4ccc(OCc5cccc(F)c5)c(Cl)c4)c3c2)o1 [lapatinib, reference compound]
expression of phosphorylated EGFR / ErbB2 / AKT / ERK ([7]; 100 nM lapatinib): reduced expression

Molecule: (GGGAGGG)2-E3-IRDye800: control peptide for the IRDye800 heterodimer (also: dimer via E3 linker, IRDye800 label) [reference compound]
Photoacoustic T/B ratio, mean [4]: 1.44±0.21 | Fluorescence T/B ratio, mean (±SD) [6]: 3.89±0.94

Molecule: EGF (NSDSECPLSHDGYCLHDGVCMYIEALDKYACNCVVGYIGERCQYRDLKWWELR; Epidermal growth factor; UniProt P01133 971-1023, looked up) [an endogenous ligand for EGFR, positive control, reference compound]
p-AKT and p-ERK ([7]; EGF 100 ng/mL, positive control): strong phosphorylation activity; also recorded: increased expression

Molecule: IRDye800
safety in animals [8]: safe

Molecule: KSP*-GGGSK-Cy5.5 (KSPNPRFGGGSK-NH2; also: Cy5.5 label on C-terminal Lys side chain) [KSP*-Cy5.5]
apparent association time constant Ka (OE33 cells [9]): 0.35 min⁻¹ | apparent association time constant (time) (OE33 cells [9]): 2.8 min and 2.9 min | pKd (OE33 cells [10]): 7.27

Molecule: KSPNPRF (also: FITC label)
mean fluorescence intensity with binding to Flo1-HER2 (Flo1-HER2 cells): highest mean fluorescence intensity

Molecule: QRH*-GGGSK-Cy5.5 (QRHKPREGGGSK-NH2; also: Cy5.5 label on C-terminal Lys side chain) [QRH*-Cy5.5]
apparent association time constant Ka (OE33 cells [9]): 0.21 min⁻¹ | apparent association time constant (time) (OE33 cells [9]): 4.7 min and 4.8 min | pKd (OE33 cells [10]): 7.01
